In paper PMC7078479, “Sulfamoyl Heteroarylcarboxylic Acids as Promising Metallo-β-Lactamase Inhibitors for Controlling Bacterial Carbapenem Resistance” (mBio, 2020):
“Also recorded” adds a separate entry of the source. Read-outs that look alike come from different tables or passages of the source.

How the values were obtained:
[1] = test system: IMP-1-producing E. coli NUBL-24; assay: Mouse infection model, E. coli NUBL-24, survival; assay type: in vivo, mice
Description: (§1) All experiments were approved by the Nagoya University Animal Ethics Committee, and all experiments were performed in a manner that minimized animal suffering. Male CD1 mice (4 weeks old; 20 to 25 g body weight) were purchased from Charles River Laboratories Japan (Yokohama, Japan). E. coli NUBL-24 (blaIMP-1) and K. pneumoniae MS5674 (blaNDM-1 and blaVIM-1) strains were inoculated on LB agar plates and grown for 18 h at 37°C. Bacteria were then scraped from the plates, and their concentration was adjusted to 5 × 10^6 to 1 × 10^7 CFU in saline solution containing 5% mucin; this solution was then i.p. injected into the mice. At 1 and 3 h after infection, saline solution, MPM, inhibitors, and a combination of MPM and inhibitor were i.p. injected. Mice were monitored for 7 days to formulate survival curves, after which they were euthanized by CO2 asphyxiation.

HeLa cells = assay: Toxicity assay in HeLa cells (CellTiter 96 AQueous); assay type: cell-based; conditions: 24 h exposure, cell proliferation assay
Description: HeLa cells were seeded at 5,000 cells per well in 96-well plates and cultured in Dulbecco’s modified Eagle’s medium (DMEM) (Wako Pure Chemical Industries, Osaka, Japan). After incubation for 24 h at 37°C with 5% CO2, staurosporine (Sigma-Aldrich, St. Louis, MO) and SHCs were added to each well (final DMSO concentration was 1%), after which the plates were incubated for another 24 h. Twenty microliters of tetrazolium solution, obtained from a CellTiter 96 AQueous one-solution cell proliferation assay kit (Promega, Madison, WI), was added into each well. The plate was incubated for 3 h under the same conditions mentioned above, and the absorbance at 490 nm was measured for the determination of cell proliferation.

[2] = test system: NDM-type MBL-producing Enterobacteriaceae; assay: Susceptibility testing, 14 NDM-type MBL-producing Enterobacteriaceae isolates; assay type: cell-based; conditions: 10 μg/ml SFC, NDM-producing Enterobacteriaceae
Description: (§2) MICs were determined via the microdilution method according to the CLSI guidelines ([38]). In brief, 5 × 10^4 bacterial cells were inoculated in 100 μl of cation-adjusted Mueller-Hinton broth (Becton, Dickinson and Company, Franklin Lakes, NJ) containing the β-lactams and appropriately diluted inhibitors. The final concentration of DMSO was maintained at 2% in the assays. The tested plates were then incubated at 35°C for 16 to 20 h. The MIC value was determined as the lowest concentration of tested β-lactams where no bacterial growth was visibly observed. The optical density at 600 nm (OD600) value was measured using a plate reader for drawing the heat maps. The FIC index value was calculated using the following equation: FIC index=MIC of β-lactam with inhibitor/MIC of β-lactam alone+MIC of inhibitor with β-lactam/MIC of inhibitor alone

[3] = Acute toxicity study in mice; assay type: in vivo; conditions: male, CD1, mouse, in vivo, ip, intraperitoneal (i.p.) single injection, read-out: 50% lethal dose (LD50)
Description: as §1
For acute toxicity studies, mice were i.p. (400 μl/injection) or i.v. (150 μl/injection) administered a single injection of serially diluted SFC. Mortality was then monitored for 7 days.

[4] = test system: P. aeruginosa PAO1/pME-IMP-1; assay: Susceptibility testing, IMP-1-producing P. aeruginosa PAO1; assay type: cell-based; conditions: Pseudomonas aeruginosa
Description: as §2

[5] = test system: E. coli BL21(DE3)/pET-SIM-1; assay: Susceptibility testing, SIM-1-producing E. coli; assay type: cell-based; conditions: Escherichia coli
Description: as §2

SMB-1 = assay: In vitro inhibition assay, IPM hydrolysis by SMB-1; assay type: biochemical; conditions: even in the presence of 100 μM SFC
Description: (§3) MBL (10 nM) was mixed with the inhibitors and incubated for 5 min at 30°C. IPM was added to reach a concentration of 150 μM, and the velocity of IPM hydrolysis was monitored at 298 nm. The assay was performed at 30°C using 10 mM HEPES (pH 7.5) buffer containing 200 mM NaCl and 50 μg/ml bovine serum albumin (BSA) for IMP-1, NDM-1, VIM-2, and SMB-1. For SFH-1 and L1, another 10 mM HEPES (pH 7.5) buffer containing 200 mM NaCl, 20 μM ZnSO4, and 50 μg/ml BSA was used.

NDM-1 = biological target: T1, NDM-1 (Klebsiella pneumoniae, UniProt C7C422); assay: Inhibition of IPM hydrolysis by purified NDM-1, Ki by Lineweaver-Burk plots; assay type: biochemical; conditions: IPM as substrate, competitive model, mean of three replicates; read-out: Inhibition constant Ki NDM-1
T1 construct: made in house
T1 sequence (C7C422 29-270 limits assumed): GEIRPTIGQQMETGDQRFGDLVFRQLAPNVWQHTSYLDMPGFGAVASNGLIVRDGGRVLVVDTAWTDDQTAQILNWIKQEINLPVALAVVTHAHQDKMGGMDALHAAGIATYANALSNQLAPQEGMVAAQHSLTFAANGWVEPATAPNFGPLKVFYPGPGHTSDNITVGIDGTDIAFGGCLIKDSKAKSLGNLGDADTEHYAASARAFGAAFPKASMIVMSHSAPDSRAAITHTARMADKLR
Description: as §3
Initial velocities (vo) were measured after varying the concentrations of IPM and inhibitors, and inverse velocities (1/vo) were plotted against inverse IPM concentrations […]. Lineweaver-Burk plots were constructed to obtain the inhibition constant (Ki) with the competitive inhibition model using the SigmaPlot 13 suite (Hulinks).

[6] = test system: IMP-type MBL-producing Enterobacteriaceae; assay: Susceptibility testing, 19 IMP-type MBL-producing Enterobacteriaceae isolates; assay type: cell-based; conditions: for Isolates whose MPM MIC decreased to susceptible criteria (MIC ≤1 μg/ml): IMP-producing isolates
Description: as §2

TLA-3 = assay: Serine β-lactamase inhibition, nitrocefin hydrolysis by TLA-3; assay type: biochemical; conditions: nitrocefin 100 μM
Description: The serine–β-lactamases (1 nM) TLA-3, CMY-2, and OXA-48 were mixed with SFC in 100 mM phosphate buffer (pH 7.0) and incubated for 5 min at 30°C. Nitrocefin was added to reach a concentration of 100 μM, and the velocity of nitrocefin hydrolysis was monitored at 482 nm. Avibactam (MedKoo Bioscience, Morrisville, NC) was used as an inhibitor for serine–β-lactamases. The inhibitory effect of SFC against ACE was evaluated using ACE Kit-WST (Dojindo Laboratories, Kumamoto, Japan). The residual ACE activity was calculated as described in the manufacturer’s protocol as follows: [1 − (Acontrol − Asample)/(Acontrol − Abackground)] × 100. EDTA solution (Nippon Gene, Tokyo, Japan) was used as an ACE inhibitor.

[7] = test system: Pseudomonas aeruginosa clinical isolates; assay: Susceptibility testing, 17 P. aeruginosa clinical isolates; assay type: cell-based
Description: as §2

[8] = test system: E. coli BL21(DE3)/pET-SPM-1; assay: Susceptibility testing, SPM-1-producing E. coli; assay type: cell-based; conditions: Escherichia coli
Description: as §2

[9] = test system: Salmonella enterica serovar Typhimurium TA98 and TA100, E. coli WP2uvrA; assay: Ames test (reverse mutation assay)
Description: Bacterial strains of Salmonella enterica serovar Typhimurium TA98 and TA100 as well as E. coli WP2uvrA were analyzed using the reverse mutation assay, which was performed by UBE Scientific Analysis Laboratory (Tokyo, Japan).

[10] = read-out: MIC of MPM + inhibitor (8 μg/ml)
[11] = read-out: MIC of MPM + inhibitor (32 μg/ml)

With `Cc1oc(C)c(S(N)(=O)=O)c1C(=O)O` [SFC, 2,5-dimethyl-4-sulfamoylfuran-3-carboxylic acid] the “Mice rescued from death at the endpoint” value ([1]; MPM (0.2 mg/kg)-SFC (100 mg/kg) combination therapy, i.p., 7 days following infection) was 90%, the “Rescue of infected mice by monotherapy” value ([1]; SFC 100 mg/kg or MPM 0.2 mg/kg i.p. at 1 and 3 h after infection, within 48 h) was “failed to rescue mice” and the “Toxicity in HeLa cells” value (HeLa cells) was “very low toxicity; also recorded: low toxicity”. For the same compound, the “Reduction of MPM MIC50” value [2] was 8 fold, the LD50 at 7 days [3] was > 1000 mg/kg and the MIC ([4]; PAO1, read-out: MIC of MPM + inhibitor (10 μg/ml)) was 32 µg/mL. For the same compound, the MIC ([4]; PAO1, read-out: MIC of MPM + inhibitor (50 μg/ml)) was 16 µg/mL, the MIC [5, 10] was 2 µg/mL and the MIC [5, 11] was 1 µg/mL. For the same compound, the “Inhibition of IPM hydrolyzing activity of SMB-1” value (SMB-1) was “did not inhibit”, the Ki (NDM-1) was 9.82 µM and the “Reduction of MPM MIC50” value ([6]; 10 μg/ml SFC, IMP-producing Enterobacteriaceae) was 128 fold. For the same compound, the “Isolates whose MPM MIC decreased to susceptible criteria (MIC ≤1 μg/ml)” value ([6]; addition of 10 μg/ml SFC) was 16/19, the “Isolates whose MPM MIC decreased to susceptible criteria (MIC ≤1 μg/ml)” value ([6]; addition of 50 μg/ml SFC) was 17/19 and the “Inhibitory effect against TLA-3 (class A)” value (TLA-3) was “nonexistent or insufficient”. For the same compound, the “Drop of MPM MIC50” value ([7]; 10 μg/ml SFC) was 2 fold, the “Drop of MPM MIC50” value ([7]; 50 μg/ml SFC) was 8 fold and the MIC [8, 10] was 0.063 µg/mL. For the same compound, the MIC [8, 11] was 0.063 µg/mL and the “Ames test, mutagenicity” value [9] was “negative”.
